From ChEMBL document CHEMBL1201862, “PubChem BioAssay data set” (2004)
Calls of active or inactive are those of the source.

How the values were obtained:
[1] = molecular target: T1, Bcl-2-related protein A1 (Mus musculus, UniProt Q07440); assay: small-molecule antagonists of Bfl-1/BH3 interaction – biochemical, TR-FRET, mouse Bfl-1, confirmation (AID 621);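 also: TR-FRET binding of GST-Bfl-1 to FITC-labelled Bid peptide via terbium antibody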
T1 sequence (Q07440 whole entry): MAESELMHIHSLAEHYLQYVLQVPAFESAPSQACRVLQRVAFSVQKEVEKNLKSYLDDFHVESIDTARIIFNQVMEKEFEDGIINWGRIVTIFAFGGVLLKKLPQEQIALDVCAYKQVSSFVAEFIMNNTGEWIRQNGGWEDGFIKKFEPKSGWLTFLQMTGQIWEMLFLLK

[2] = molecular target: Glyceraldehyde-3-phosphate dehydrogenase (Homo sapiens, UniProt P04406)
Glyceraldehyde-3-phosphate dehydrogenase, sequence (P04406 whole entry): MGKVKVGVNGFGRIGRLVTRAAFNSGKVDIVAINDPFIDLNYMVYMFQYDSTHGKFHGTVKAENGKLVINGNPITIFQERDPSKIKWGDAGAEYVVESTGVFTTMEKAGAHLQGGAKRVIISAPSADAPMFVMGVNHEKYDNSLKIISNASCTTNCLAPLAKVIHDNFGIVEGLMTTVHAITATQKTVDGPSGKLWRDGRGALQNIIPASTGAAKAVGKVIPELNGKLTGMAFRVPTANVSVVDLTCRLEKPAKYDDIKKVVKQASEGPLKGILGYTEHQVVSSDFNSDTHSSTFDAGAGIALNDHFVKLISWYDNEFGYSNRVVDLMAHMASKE

[3] = molecular target: T1, Bcl-2-related protein A1; assay: Bfl-1 binding inhibitors, SAR follow-up, biochemical, fluorescence polarization (AID 1070)
[4] = molecular target: Protein Tat (Human immunodeficiency virus type 1 group M subtype B (isolate HXB2)(HIV-1), UniProt P04608); format: functional;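 also: tat binding to TAR RNA read out by fluorescence polarization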
Protein Tat, sequence (P04608 whole entry): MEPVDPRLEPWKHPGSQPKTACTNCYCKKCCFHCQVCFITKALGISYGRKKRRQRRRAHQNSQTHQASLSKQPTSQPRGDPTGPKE

[5] = cells; details: A549
[6] = molecular target: Aryl hydrocarbon receptor (Homo sapiens, UniProt P35869); assay: Luminescence-based cell-based high throughput dose response assay for activators of the Aryl Hydrocarbon Receptor (AHR). [Related pubchem assays: 2796 (Primary screen (AHR activators in singlicate)), 2845 (Confirmation screen (AHR activators in triplicate)), 434939 (Counterscreen (PXR activators in triplicate)), 2804 (Summary (AHR activators))]; format: ADME
Aryl hydrocarbon receptor, sequence (P35869 whole entry): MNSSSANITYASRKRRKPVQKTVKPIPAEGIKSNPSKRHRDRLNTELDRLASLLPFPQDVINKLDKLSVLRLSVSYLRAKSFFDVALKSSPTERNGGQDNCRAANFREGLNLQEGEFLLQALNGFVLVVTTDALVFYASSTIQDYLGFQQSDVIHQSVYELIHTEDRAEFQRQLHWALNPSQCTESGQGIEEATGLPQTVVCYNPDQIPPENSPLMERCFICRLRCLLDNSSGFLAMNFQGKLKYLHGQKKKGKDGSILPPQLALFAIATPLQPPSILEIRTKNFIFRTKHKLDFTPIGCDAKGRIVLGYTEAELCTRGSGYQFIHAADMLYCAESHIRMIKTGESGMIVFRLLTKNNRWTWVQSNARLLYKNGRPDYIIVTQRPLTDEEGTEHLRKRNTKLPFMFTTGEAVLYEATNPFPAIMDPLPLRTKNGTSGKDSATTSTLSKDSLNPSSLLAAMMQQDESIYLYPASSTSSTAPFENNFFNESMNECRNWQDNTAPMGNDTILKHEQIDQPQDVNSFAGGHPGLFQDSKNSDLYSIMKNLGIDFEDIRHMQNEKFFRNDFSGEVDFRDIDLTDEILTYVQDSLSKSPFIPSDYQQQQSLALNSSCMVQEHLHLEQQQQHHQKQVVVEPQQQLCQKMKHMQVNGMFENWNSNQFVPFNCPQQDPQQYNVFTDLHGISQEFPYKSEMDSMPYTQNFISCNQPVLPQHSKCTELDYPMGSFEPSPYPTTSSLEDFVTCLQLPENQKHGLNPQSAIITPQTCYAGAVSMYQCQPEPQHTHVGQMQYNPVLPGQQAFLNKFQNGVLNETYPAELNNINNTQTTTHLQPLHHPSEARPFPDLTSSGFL

[7] = blockers of bursicon-stimulated LGR2 cAMP reporter – cell-based, HEK293, CRE-luciferase reporter, cherry pick, set 2, dose response (AID 743343); format: functional;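 also: transfected cells were stimulated with diluted bursicon conditioned medium after compound addition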
[8] = viability loss in THP-1 monocytes – THP-1 cells, cytotoxicity control for Vif-APOBEC3G degradation inhibitor project, dose response (AID 1117359); format: functional; details: THP-1
[9] = blockade of melanocortin 4 receptor signaling – cell-based, plate reader, cherry pick, counter-screen for LGR2 antagonist project, dose response (AID 743444); format: functional;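 also: transfected HEK 293 cells stimulated with alpha-MSH peptide; potency of inhibitors of the alpha-MSH evoked signal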
[10] = A549 cell cytotoxicity, dose response, cytotoxicity control, plate reader, cherry-pick, antagonist series (AID 743412); format: functional, cell-based
[11] = viability loss in HEK293 cells – cell-based, plate reader, cherry-picked samples, cytotoxicity control, dose response (AID 743446); format: functional
[12] = HIV-1 AD8 envelope cell-cell fusion blockers – cherry-pick, dose response (AID 652062); format: functional, cell-based;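 also: luciferase signal from cell-cell fusion driven by HIV-1 clade B AD8 Env; potency is for inhibitors of fusion seen as a drop in luminescence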
[13] = molecular target: T2, COUP transcription factor 2 (Homo sapiens, UniProt P24468); assay: Luminescence-based cell-based high throughput dose response assay to identify inhibitors of COUP-TFII (NR2F2).; format: functional;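 also: HEK293 cells transiently cotransfected with COUP-TFII expression vector and reporter; luciferase reporter luminescence driven by COUP-TFII from the pX2-168 reporter plasmid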
T2 sequence (P24468 whole entry): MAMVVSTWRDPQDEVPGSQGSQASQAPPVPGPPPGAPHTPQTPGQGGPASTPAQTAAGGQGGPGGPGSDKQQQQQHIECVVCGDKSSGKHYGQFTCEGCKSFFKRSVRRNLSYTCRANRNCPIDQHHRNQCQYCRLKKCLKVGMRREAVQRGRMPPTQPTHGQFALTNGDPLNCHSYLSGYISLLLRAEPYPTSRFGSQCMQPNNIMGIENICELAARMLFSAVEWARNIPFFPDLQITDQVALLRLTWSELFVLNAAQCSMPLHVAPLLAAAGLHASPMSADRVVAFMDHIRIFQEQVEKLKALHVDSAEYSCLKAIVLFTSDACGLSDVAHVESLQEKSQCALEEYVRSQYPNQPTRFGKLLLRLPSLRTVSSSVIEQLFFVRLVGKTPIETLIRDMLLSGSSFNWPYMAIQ

[14] = blockers of HIV-1 ZM109 envelope-driven cell-cell fusion – HeLa effector, CEM target cells, luciferase, cherry-pick, dose response (AID 652058); format: functional, cell-based;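 also: luciferase signal from HIV-1 Env mediated cell-cell fusion of effector and target cells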
[15] = viability loss in CEM21 cells – cell-based, CellTiter-Glo luminescence, cherry-picked, cytotoxicity control for viral fusion inhibitor project, dose response (AID 652042); format: functional;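 also: potency for signal decrease meaning cytotoxicity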
[16] = test system: H9c2; assay: cells; format: functional, cell-based; details: Rattus norvegicus, H9c2, Myocardium;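 also: confirmatory concentration-response retest of ultra-high-throughput screening hits for modulation of myocardial damage; cell death induced by hydrogen peroxide oxidative stress; compound pretreatment for 60 min then peroxide exposure for 2 h; potency is for protecting the cells against peroxide damage rather than for killing them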
[17] = molecular target: T3, Oxysterols receptor LXR-beta (Homo sapiens, UniProt P55055); format: functional, cell-based;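 also: agonist activity at LXR measured by a cell-based luminescence readout across a dose range, run as a counterscreen for daf-12 agonists; HEK293 cells with Gal4-LXR fusion and GAL4-driven luciferase reporter; potency for activation of Gal4-LXR reporter so compounds are agonists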
T3 sequence (P55055 whole entry): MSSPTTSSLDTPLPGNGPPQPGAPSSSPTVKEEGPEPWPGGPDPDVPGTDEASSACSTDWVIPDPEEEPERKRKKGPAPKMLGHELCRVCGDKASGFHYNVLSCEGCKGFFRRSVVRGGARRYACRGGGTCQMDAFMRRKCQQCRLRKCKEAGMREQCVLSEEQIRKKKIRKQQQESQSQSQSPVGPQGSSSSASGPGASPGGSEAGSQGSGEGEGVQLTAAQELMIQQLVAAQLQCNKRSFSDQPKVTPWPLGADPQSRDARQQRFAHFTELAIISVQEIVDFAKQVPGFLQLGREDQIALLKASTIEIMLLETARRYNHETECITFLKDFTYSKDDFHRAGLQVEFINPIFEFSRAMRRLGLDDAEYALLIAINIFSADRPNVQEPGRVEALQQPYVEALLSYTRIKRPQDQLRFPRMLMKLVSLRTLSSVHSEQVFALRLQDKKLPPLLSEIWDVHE

[18] = test system: H4; assay: Luminescence Cell-Based Dose Response HTS to Identify Activators of 5'UTR Stem-Loop Driven Prion Protein mRNA Translation in H4 Neuroglioblastoma Cells. [Related pubchem assays: 1829 (Project Summary), 1814 (Primary HTS)]; format: functional; details: Homo sapiens
[19] = Luminescence Cell-Based Dose Response HTS to Identify Activators of Luciferase Translation or Activity in H4 […] Cells. [Related pubchem assays: 1829 (Project Summary), 1814 (Primary HTS)]; format: functional
[20] = Luminescence Cell-Based Dose Confirmation HTS to Identify Activators of 5'UTR Stem-Loop Driven Alpha-Synuclein mRNA Translation in H4 Neuroglioblastoma Cells. [Related pubchem assays: 1829 (Project Summary), 1814 (Primary HTS)]; format: functional

O=C1C(Cl)=C(N2CCN(Cc3ccccc3)CC2)C(=O)N1c1ccc(Cl)c(Cl)c1
IC50 [1]: 1.64 µM (active) | IC50 [2]: > 100 µM (not active) | IC50 [3]: 1.62 µM (active)

Cc1cc(C(=O)CSc2nnc(-c3ccccc3)n2Cc2ccc3c(c2)OCO3)c(C)n1C
IC50 [4]: > 100 µM (active)

COc1ccc(C2CC(c3ccccc3)=NN2c2ccc(C(N)=O)cc2)cc1 (stereo not given)
AC50 [5]: 39.1 µM (active)

CC(=O)c1ccc(NC(=O)c2cc(Cl)nc3ccccc23)cc1
EC50 [6]: 1.66 µM (active)

CN(C)c1nc(N)nc(-c2nc3ccccc3s2)n1
EC50 [6]: 0.845 µM (active)

Cc1cc(-c2ccccc2)nc(S(C)(=O)=O)n1
IC50 [1]: > 100 µM (not active) | IC50 [2]: > 100 µM (not active) | IC50 [3]: > 100 µM (not active)

COc1ccc(Nc2ncc(F)c(N3CCOCC3)n2)cc1
AC50 [7]: 18 µM (active) | CC50 [8]: > 40 µM (active) | AC50 [9]: 10.2 µM (active) | AC50 [10]: > 52 µM (inactive) | AC50 [11]: > 52 µM (inactive)

Cc1ccc(Cn2ncc3c(N4CCN(Cc5ccc(Cl)cc5)CC4)ncnc32)cc1
AC50 [12]: 3.86 µM (active) | IC50 [13]: 10.6 µM (inactive) | AC50 [14]: 0.606 µM (active) | AC50 [15]: 52 µM (active)

CCOc1ccc2nc(O)c(CN(Cc3nnnn3Cc3ccco3)C3CCCCC3)cc2c1
IC50 [16]: 25.5 µM (active) | CC50 [8]: > 40 µM (active)

CC1=CN2C(=N)/C(=C/c3ccco3)C(=O)N=C2S1
EC50 [17]: > 67.5 µM (inactive) | EC50 [18]: 1.63 µM (active) | EC50 [19]: 6.38 µM (active) | EC50 [20]: 5.22 µM (active)
